Reference: patent publication US10676508B2, “DEPDC1-derived peptide and vaccine containing same” (OncoTherapy Science, Inc., priority 2015, dated 2020)

Legend:
[1] = tested on: peptide-pulsed C1R-A01 cells; assay: In vitro CTL induction, IFN-gamma ELISPOT assay (HLA-A*0101); assay type: cell-based, human; details: CTLs from HLA-A*0101-positive donors, DCs pulsed with 20 micro-g/ml peptide, day 21, versus unpulsed C1R-A01
Source text: Monocyte-derived dendritic cells (DCs) were used as the antigen-presenting cell to induce a cytotoxic T lymphocyte (CTL) response against peptides presented on human leukocyte antigens (HLAs). As described in the other sections, DCs were generated in vitro (Nakahara S et al., Cancer Res 2003, 63(14): 4112-8). Specifically, peripheral-blood mononuclear cells isolated from healthy volunteers (HLA-A*0101-positive) with the Ficoll-Paque plus solution (Pharmacia) were separated by attaching to plastic tissue culture dishes (Becton Dickinson) and concentrated as a monocyte fraction. The monocyte-concentrated population was cultured in the presence of 1000 IU/ml granulocyte macrophage colony-stimulating factor (R&D System) and 1000 IU/ml interleukin (IL)-4 (R&D System) in an AIM-V medium (Invitrogen) containing 2% heat-inactivated autologous serum (AS). After seven days of culturing, the cytokine-induced DCs were pulsed with 20 micro-g/ml each of the synthesized peptides in an AIM-V medium at 37 degrees C. for three hours in the presence of 3 micro-g/ml beta 2-microglobulin. Next, these peptide-pulsed DCs were inactivated by X-ray irradiation (20 Gy), and mixed in a 1:20 ratio with autologous CD8^+ T cells obtained by positive selection using the CD8 Positive Isolation Kit (Dynal). These culture products were seeded in a 48-well plate (Corning). Each well was made to contain 1.5×10^4 peptide-pulsed DCs, 3×10^5 CD8^+ T cells and 10 ng/ml IL-7 (R&D System) in 0.5 ml of the AIM-V/2% AS medium. Three days later, these culture products were added with a final concentration of 20 IU/ml IL-2 (CHIRON). On day 7 and day 14, T cells were further stimulated with peptide-pulsed autologous DCs. The DCs were prepared every time by the same method as above. On day 21, after the third peptide stimulation, CTL activities were examined against the peptide-pulsed C1R-A01 cells (Tanaka H et al., Br J Cancer 2001, 84(1): 94-9; Umano Y et al., Br J Cancer 2001, 84(8): 1052-7; Uchida N et al., Clin Cancer Res 2004, 10(24): 8577-86; Suda T et al., Cancer Sci 2006, 97(5): 411-9; Watanabe T et al., Cancer Sci 2005, 96(8): 498-506).
To examine specific CTL activity, an IFN-gamma ELISPOT assay and an IFN-gamma ELISA were performed. Specifically, peptide-pulsed C1R-A01 cells (1×10^4 cells/well) were prepared as the stimulator cell. The induced CTLs, i.e., CTL lines and CTL clones, were used as the responder cell. The IFN-gamma ELISPOT assay and IFN-gamma ELISA were performed according to the manufacturer's manual.

[2] = tested on: peptide-pulsed C1R-A01 cells; assay: IFN-gamma ELISA of CTL line and CTL clone (HLA-A*0101); assay type: cell-based, human
Method: (§1) CTLs were propagated in culture using methods similar to those disclosed by Riddell et al. (Walter E A et al., N Engl J Med 1995, 333(16): 1038-44; Riddell S R et al., Nat Med 1996, 2(2): 216-23). The CTLs were co-cultured in a total of 25 ml AIM-V medium containing 5% AS and 40 ng/ml anti-CD3 antibody with two types of Mitomycin C-treated human B lymphoblastoid cell lines at 5×10^6 cells. One day after beginning of the culturing, 120 IU/ml IL-2 was added to the culture. On days 5, 8 and 11, a fresh AIM-V/5% AS medium containing 30 IU/ml IL-2 was added to the culture (Tanaka H et al., Br J Cancer 2001, 84(1): 94-9; Umano Y et al., Br J Cancer 2001, 84(8): 1052-7; Uchida N et al., Clin Cancer Res 2004, 10(24): 8577-86; Suda T et al., Cancer Sci 2006, 97(5): 411-9; Watanabe T et al., Cancer Sci 2005, 96(8): 498-506).
(§2) CTLs were seeded to make 1 or 10 cells/well in 96 round-bottomed microtiter plates (Nalge Nunc International). The CTLs were co-cultured with two types of Mitomycin C-treated human B lymphoblastoid cell lines at 1×10^4 cells in a total of 150 micro-l/well 5% AS-containing AIM-V medium with 30 ng/ml anti-CD3 antibody and 125 IU/ml IL-2. Ten days later, 50 micro-1 of IL-2 at 500 IU/ml in 5% AS-containing AIM-V medium was added to the medium. […]

[3] = tested on: COS7 cells transfected with DEPDC1 and HLA-A*0101; assay: Specific CTL activity against target cells expressing DEPDC1 and HLA-A*0101; assay type: cell-based, African green monkey; details: peptide-induced CTL clone
Source text: A cDNA encoding the open-reading frame of a target gene or HLA-A*0101 was amplified by PCR. The PCR-amplified product was cloned into an expression vector. Expression vectors were transfected using Lipofectamine 2000 (Invitrogen) following the manufacturer's recommended protocol. Two days after transfection, the transfected cells were harvested using versene (Invitrogen), and used as the stimulator cell for CTL activity assay (5×10^4 cells/well).
(§3) The CTL clone induced with DEPDC1-A01-11-44 (SEQ ID NO: 108) was investigated for its ability to recognize target cells expressing DEPDC1 and the HLA-A*0101 molecule. COS7 cells transfected with both full-length DEPDC1 and the HLA-A*0101 gene were prepared as the target cell. COS7 cells transfected with either full-length DEPDC1 or HLA-A*0101 were prepared as the control.

peptide-pulsed C1R-A11 [4] = assay: In vitro CTL induction, IFN-gamma ELISPOT assay (HLA-A*1101); assay type: cell-based, human; details: CTLs from HLA-A*1101-positive donors, DCs pulsed with 20 micro-g/ml peptide, day 21, versus unpulsed C1R-A11
Source text: Monocyte-derived dendritic cells (DCs) were used as the antigen-presenting cell to induce a cytotoxic T lymphocyte (CTL) response against peptides presented on human leukocyte antigens (HLAs). As described in the other sections, DCs were generated in vitro (Nakahara S et al., Cancer Res 2003, 63(14): 4112-8). Specifically, peripheral-blood mononuclear cells isolated from healthy volunteers (HLA-A*1101-positive) with the Ficoll-Paque plus solution (Pharmacia) were separated by attaching to plastic tissue culture dishes (Becton Dickinson) and concentrated as a monocyte fraction. The monocyte-concentrated population was cultured in the presence of 1000 IU/ml granulocyte macrophage colony-stimulating factor (R&D System) and 1000 IU/ml interleukin (IL)-4 (R&D System) in an AIM-V medium (Invitrogen) containing 2% heat-inactivated autologous serum (AS). After seven days of culturing, the cytokine-induced DCs were pulsed with 20 micro-g/ml each of the synthesized peptides in an AIM-V medium at 37 degrees C. for three hours in the presence of 3 micro-g/ml beta 2-microglobulin.
Next, these peptide-pulsed DCs were inactivated by X-ray irradiation (20 Gy), and mixed in a 1:20 ratio with autologous CD8^+ T cells obtained by positive selection using the CD8 Positive Isolation Kit (Dynal). These culture products were seeded in a 48-well plate (Corning). […]

[5] = tested on: COS7 cells transfected with DEPDC1 and HLA-A*1101; assay: Specific CTL activity against target cells expressing DEPDC1 and HLA-A*1101; assay type: cell-based, African green monkey; details: peptide-induced CTL line
Source text: A cDNA encoding the open-reading frame of a target gene or HLA-A*1101 was amplified by PCR. The PCR-amplified product was cloned into an expression vector. Either or both of the target gene-expressing vector and the HLA-A*1101-expressing vector were transfected into COS7 cells, which is a cell line negative for the target gene and HLA, using Lipofectamine 2000 (Invitrogen) following the manufacturer's recommended protocol. Two days after transfection, the transfected cells were harvested using versene (Invitrogen), and used as the target cell for CTL activity assay (5×10^4 cells/well).
as §3, with “line” for “clone”, “DEPDC1-A11-9-627” for “DEPDC1-A01-11-44”, “1)” for “108)”, “HLA-A*1101” for “HLA-A*0101”

peptide-pulsed C1R-A11 [6] = assay: IFN-gamma ELISA of CTL line and CTL clones (HLA-A*1101); assay type: cell-based, human
Method: as §1, with “5% AS (AIM-V/5% AS) and 40” for “5% AS and 40”, “cell lines (5×10^6 cells). One day” for “cell lines at 5×10^6 cells. One day”
as §2, with “micro-l/well AIM-V/5% AS” for “micro-l/well 5% AS-containing AIM-V”, “later,” for “later, 50 micro-1 of”, “in 50 micro-1 AIM-V/5% AS” for “in 5% AS-containing AIM-V”

| Sequence | peptide-specific CTL activity (IFN-gamma production, ELISPOT) [1] | IFN-gamma production of CTL clone (ELISA) ([2]; CTL clone by limiting dilution, peptide-pulsed C1R-A01 cells) | IFN-gamma production of the CTL line (ELISA) ([2]; CTL line from Well #8, peptide-pulsed versus unpulsed target cells) | CTL activity against control COS7 cells ([3]; COS7 transfected with either full-length DEPDC1 or HLA-A*0101) | CTL activity against COS7 cells expressing both DEPDC1 and HLA-A*0101 [3] | peptide-specific CTL activity (IFN-gamma production, ELISPOT) (peptide-pulsed C1R-A11 [4]) | CTL activity against control COS7 cells ([5]; COS7 transfected with either full-length DEPDC1 or HLA-A*1101) | CTL activity against COS7 cells expressing both DEPDC1 and HLA-A*1101 [5] | IFN-gamma production of CTL clones (ELISA) (peptide-pulsed C1R-A11 [6]; CTL clones by limiting dilution, peptide-pulsed C1R-A11 cells) | IFN-gamma production of the CTL line (ELISA) (peptide-pulsed C1R-A11 [6]; CTL line from Well #4, peptide-pulsed versus unpulsed target cells) |
| --- | --- | --- | --- | --- | --- | --- | --- | --- | --- | --- |
| FTAGEAVDWLY (a peptide derived from DEPDC1) [SEQ ID NO: 108] | potent IFN-gamma production | Potent IFN-gamma production | potent IFN-gamma production | a significant specific CTL activity was not detected | potent CTL activities | – | – | – | – | – |
| MSQNVDMPK [SEQ ID NO: 1] | – | – | – | – | – | potent IFN-gamma production | a significant specific CTL activity was not detected | potent CTL activity | Potent IFN-gamma production | potent IFN-gamma production |
